Reference: patent US5168102A, “Endocrine manipulation to improve body composition of poultry” (priority 1990, dated 1992)
Values joined by “and” are separate entries in the source; they are usually repeats but may differ in a detail not shown here. Identical values can stand only once. “Also recorded” adds a separate entry of the source.

Columns and labels:
[1] = Example 3: final body weight and relative weights of liver, abdominal fat and muscles; format: in vivo, broiler cockerels
Protocol: Day-old broiler cockerels were randomly assigned to 24 pens (5 birds/pen) in a battery brooder. The total duration of the bird management period lasted from 7 to 8 weeks. Hereafter, the end of the first week of life of the birds is referred to as week no. 1 (i.e. 7 days of life), the end of the second week as week no. 2, etc. At week no. 3, four birds from each pen were transferred to wire grow-out cages. […] 5 to week no. 7 (4 pens/treatment). Body weight and feed consumption were determined at weekly intervals. A 5 ml blood sample was obtained from each bird at week no. 7 and stored at -20° C. until assayed for plasma hormones.
(§1) At week no. 7 (49 days-of-age), one-half of the birds (8 birds/treatment) were killed for measurement of the abdominal fat pad and liver weights. The muscles were removed, weighed, frozen in liquid N2 and stored at -20° C. until analyzed. At 51 days-of-age, groups of 4 birds per treatment were given a subcutaneous infusion of 4 μCi/Kg of 14C-L-tyrosine emulsified in sesame seed oil and immediately placed in metabolism cages. The expired CO2 was trapped in 15 ml of scrubbing solution (1:2 ethanolamine/methyl cellusolve) and the tubes were changed every 15 minutes for 90 minutes. At 90 minutes, the birds were removed from the metabolism cages and blood was obtained via cardiac puncture. Birds were then sacrificed by cervical dislocation and the muscles were removed, weighed, frozen in liquid N2 and stored at -20° C. until analyzed. Radioactivity in the samples containing trapped CO2 was counted for 10 minutes using a liquid scintillation spectrophotometer. At 54 days-of-age, groups of 4 birds per treatment were killed, the muscles were dissected, weighed, and frozen until analyzed.
(§2) The right breast muscle, i.e. BM (Pectoralis major) and right leg muscles, i.e. LM (gastrocnemius and peroneus longus) were dissected out from the birds, weighed and immediately frozen in liquid nitrogen and stored at -20° C. until analyzed for tyrosine content as specific radioactivity of tyrosine. All muscle tissues were analyzed for protein content; only tissues from isotope experiments were analyzed for tyrosine content as specific radioactivity of tyrosine.

[2] = Example 2: plasma hormone concentrations; format: in vivo, broiler cockerels (Ross X Arbor Acre); details: vs CF+BI or CF+GH treatment
Protocol: Forty-eight 3-week-old broiler cockerels (Ross X Arbor Acre) were randomly divided into four treatment groups that contained three pens of four birds. The birds were housed in a controlled-environment room under a 20 hour light/4 hour dark cycle with feed and water provided ad libitum.
The preparation of ncGH used in this study was from the same lot used in Example 1.
Body weights and feed consumption was determined at weekly intervals although the ADG, ADFC and FTG ratio was determined over the 21 day period. […] At the conclusion of the study (6 weeks-of-age), birds were killed and the abdominal fat removed and weighed. The liver and abdominal fat were returned to the carcass which was frozen for proximate analysis as described in […]

[3] = exogenous; cited from earlier work
[4] = Example 3: muscle protein turnover (14C-L-tyrosine infusion); format: in vivo, broiler cockerels
Protocol: as §1, §2
FAR of breast muscle and leg muscles were estimated from regression of total muscle protein on age. Total muscle protein was determined by multiplying the muscle weight by protein content. Protein content was determined by the Biuret method. The slope obtained by linear regression was the absolute rate of protein accretion (g/d). The FAR (%/d) was calculated by dividing the absolute accretion rate by the average muscle protein at 51 days-of-age. The FSR (ks) was calculated according to the equation described by Garlick et al., Biochem. J. 136:935 (1973). Protein-bound tyrosine in muscle tissue was separated from free tyrosine according to the procedures of Laurent et al. Biochem. J. 176:419 (1978) with some modification. Approximately 1 g of muscle tissue was homogenized with 5 ml cold distilled water and washed with 15 ml of cold 5% trichloroacetic acid (TCA). The homogenate was then centrifuged for 15 min at 4000×g. The supernatant containing the free tyrosine was poured off and the TCA was extracted with 15 ml of diethyl ether. The supernatant was concentrated to dryness. The dried sample was dissolved in 5 ml of distilled water and stored at 4° C. until analyzed for tyrosine content and the specific radioactivity of tyrosine.
The pellet was extracted with 15 ml of hot 5% TCA, 15 ml of 3:1 ethanol/diethyl ether (v/v) and 20 ml of diethyl ether. The washed pellet was then placed in a 25×150 mm test tube with screw cap and hydrolyzed in 15 ml of 6N hydrochloric acid (HCl) for 16 hours at 125° C. The hydrolysate was concentrated to dryness. The dried sample was dissolved in 5 ml of distilled water and stored at 4° C. until analyzed for tyrosine content and specific radioactivity of tyrosine.
Tyrosine content in free tyrosine (supernatant) and the protein-bound fraction (hydrolysate) was analyzed according to the method of Udenfriend et al, J. Biol. Sci. 196:227 (1952).
The specific radioactivity of tyrosine in the protein-bound fraction (hydrolysate) and in the free tyrosine (supernatant) was analyzed using the method described by Schaefer et al, Can. J. Anim. Sci. 62:1223 (1982). One ml of the samples were added into 10 ml of aquasol and counted for 10 minutes in a liquid scintillation spectrophotometer.

SMILES: N[C@@H](Cc1cc(I)c(Oc2ccc(O)c(I)c2)c(I)c1)C(=O)O [T3, 3,3',5-triiodo-L-thyronine]
- relative weights of liver (RLW), right breast muscle (RBM), right leg muscle (RLM) ([1]; 0, 0.25, 1 and 4 ppm): not different among treatments
- abdominal fat weight, reduction ([1]; 0.25 ppm): 22.2% and > 20% and 22%
- effect on final body weight ([1]; 0.25 ppm): no significant adverse effect in final body weight; also recorded: do not appear to have a statistically significant effect upon final body weight
- BW (final body weight) ([1]; 0.25 ppm of feed): 2.42 kg
- RBM (right breast muscle) ([1]; 0.25 ppm of feed): 5.60 % BW
- RLM (right leg muscle) ([1]; 0.25 ppm of feed): 0.71 % BW
- RLW (relative liver weight) ([1]; 0.25 ppm of feed): 2.24 % BW
- effect on final body weight ([1]; 1.0 ppm): significant sacrifice of final body weight
- abdominal fat weight, reduction ([1]; 1.0 ppm (p<0.05)): 26.6%
- Abdom. Fat ([1]; 1.0 ppm of feed): 1.88 % BW
- BW (final body weight) ([1]; 1.0 ppm of feed): 2.33 kg
- RBM (right breast muscle) ([1]; 1.0 ppm of feed): 5.36 % BW
- RLM (right leg muscle) ([1]; 1.0 ppm of feed): 0.76 % BW
- RLW (relative liver weight) ([1]; 1.0 ppm of feed): 2.14 % BW
- effect on final body weight ([1]; 4.0 ppm): excessive loss of final body weight
- abdominal fat weight, reduction ([1]; 4.0 ppm (p<0.05)): 63.3%
- final body weight, reduction ([1]; 4.0 ppm (p<0.05)): 22.2%
- Abdom. Fat ([1]; 4.0 ppm of feed): 0.94 % BW
- BW (final body weight) ([1]; 4.0 ppm of feed): 1.99 kg
- RBM (right breast muscle) ([1]; 4.0 ppm of feed): 5.81 % BW
- RLM (right leg muscle) ([1]; 4.0 ppm of feed): 0.75 % BW
- RLW (relative liver weight) ([1]; 4.0 ppm of feed): 2.18 % BW
- average plasma T3 level, fold higher [2]: 2.3 times
- growth deficit of hypophysectomized chickens [3]: correct the growth deficit
- overall protein turnover rate of breast muscle ([4]; 0.25 ppm): did not differ from that of control birds
- protein accretion in breast and leg muscle, increase ([4]; 0.25 ppm): 45-88%
- FAR, Leg muscles ([4]; 0.25 ppm of feed): 9.3 %/d
- FAR, Pectoralis major (breast muscle) ([4]; 0.25 ppm of feed): 4.9 %/d
- FRD (fractional degradation rate), Leg muscles ([4]; 0.25 ppm of feed): 13.6 %/d
- FRD (fractional degradation rate), Pectoralis major ([4]; 0.25 ppm of feed): 12.3 %/d
- FSR, Leg muscles ([4]; 0.25 ppm of feed): 22.0 ± 2.1 %/d
- FSR, Pectoralis major ([4]; 0.25 ppm of feed): 17.2 ± 1.3 %/d
- FAR of leg muscle, increase ([4]; 0.25 ppm, vs control group): 45%
- FAR of pectoralis major (breast muscle), increase ([4]; 0.25 ppm, vs control group): 88%
- effect on protein synthesis rate in breast muscle ([4]; 0.25 to 1 ppm): only a slight effect upon protein synthesis rate in breast muscle
- FAR, Leg muscles ([4]; 1.0 ppm of feed): -2.0 %/d
- FAR, Pectoralis major (breast muscle) ([4]; 1.0 ppm of feed): -4.5 %/d
- FRD (fractional degradation rate), Leg muscles ([4]; 1.0 ppm of feed): 24.1 %/d
- FRD (fractional degradation rate), Pectoralis major ([4]; 1.0 ppm of feed): 22.7 %/d
- FSR, Leg muscles ([4]; 1.0 ppm of feed): 22.1 ± 1.9 %/d
- FSR, Pectoralis major ([4]; 1.0 ppm of feed): 18.2 ± 1.7 %/d
- fractional degradation rate of breast muscle, increase ([4]; 4 ppm): 116%
- FSR of protein in breast muscle, increase ([4]; 4.0 ppm (p<0.05)): 55.7% and 56%
- FAR, Leg muscles ([4]; 4.0 ppm of feed): 5.0 %/d
- FAR, Pectoralis major (breast muscle) ([4]; 4.0 ppm of feed): -3.8 %/d
- FRD (fractional degradation rate), Leg muscles ([4]; 4.0 ppm of feed): 18.4 %/d
- FRD (fractional degradation rate), Pectoralis major ([4]; 4.0 ppm of feed): 28.1 %/d
- FSR, Leg muscles ([4]; 4.0 ppm of feed): 23.4 ± 0.8 %/d
- FSR, Pectoralis major ([4]; 4.0 ppm of feed): 24.3 ± 1.4 %/d
- accretion of certain muscle protein (particularly breast muscle) ([4]; plasma thyroid hormone bioactivity 360-1200% of normal): decreased
